{
  "source": "patent US8912120B2",
  "about": "“Herbicidal compositions comprising 4-amino-3-chloro-5-fluoro-6-(4-chloro-2-fluoro-3-methoxyphenyl) pyridine-2-carboxylic acid or a derivative thereof and synthetic auxin herbicides” (Dow AgroSciences, LLC., priority 2012, dated 2014)",
  "key": {"CIRAR": {"tested_on": "CIRAR", "assay": "Example V: postemergence herbicidal activity of mixtures in forage crops, CIRAR", "format": "in vivo, Cirsium arvense (Canada thistle)", "conditions": "alone, foliar, approximately 21 days", "description": "(§1) Seeds or root cuttings of the desired test plant species were planted in Sun Gro MetroMix® 306 planting mixture, which typically has a pH of 6.0 to 6.8 and an organic matter content of about 30 percent, in plastic pots with a surface area of 126.6 square centimeters (cm^2). […] The plants were grown for 14-60 days in a greenhouse with an approximate 14 hour photoperiod which was maintained at approximately 28° C. during the day and 24° C. during the night.\n(§2) Spray solutions of the second herbicide or experimental compound mixtures were prepared by adding the stock solutions to the appropriate amount of dilution solution to form 12 mL spray solution with active ingredients in two-way combinations."}, "TRFRE": {"tested_on": "TRFRE", "assay": "Example V: postemergence herbicidal activity of mixtures in forage crops, TRFRE", "format": "in vivo, Trifolium repens (white clover)", "conditions": "alone, foliar, approximately 21 days", "description": "as §1, §2"}, "SOOSS": {"tested_on": "SOOSS", "assay": "Example V: postemergence herbicidal activity of mixtures in forage crops, SOOSS", "format": "in vivo, Solidago L. spec. (goldenrod)", "conditions": "alone, foliar, approximately 21 days", "description": "as §1, §2"}, "SINAR": {"tested_on": "SINAR", "assay": "Example V: postemergence herbicidal activity of mixtures in forage crops, SINAR", "format": "in vivo, Sinapis arvensis (wild mustard)", "conditions": "alone, foliar, approximately 21 days", "description": "as §1, §2"}, "ELEIN": {"tested_on": "ELEIN", "assay": "Example III: postemergence foliar-applied herbicidal mixtures, weeds common to row crops such as corn and soybeans (greenhouse), ELEIN", "format": "in vivo, Eleusine indica (goosegrass)", "conditions": "17 DAA", "description": "(§3) The plants were grown for 7-31 days (d) in a greenhouse with an approximate 15 hour (h) photoperiod which was maintained at about 23-29° C. during the day and 22-28° C. during the night."}, "SORHA": {"tested_on": "SORHA", "assay": "Example III: postemergence foliar-applied herbicidal mixtures, row crop weeds, SORHA", "format": "in vivo, Sorghum halepense (johnsongrass)", "conditions": "13 DAA; 7.5 gae/ha", "description": "as §3"}, "SCPMA": {"tested_on": "SCPMA", "assay": "Example II: in-water applied herbicidal mixtures, transplanted paddy rice, SCPMA", "format": "in vivo", "conditions": "22 DAA; 149 gae/ha", "description": "(§4) The prepared mud was dispensed in 365 mL aliquots into 16-ounce (oz.) non-perforated plastic pots with a surface area of 86.59 square centimeters (cm^2) leaving a headspace of 3 centimeters (cm) in each pot Mud was allowed to dry overnight prior to planting or transplanting. Rice seeds were planted in Sun Gro MetroMix® 306 planting mixture, which typically has a pH of 6.0 to 6.8 and an organic matter content of about 30 percent, in plastic plug trays. Seedlings at the second or third leaf stage of growth were transplanted into 840 mL of mud contained in 32-oz. non-perforated plastic pots with a surface area of 86.59 cm^2 4 days prior to herbicide application. […] Nutrients were added as Osmocote® (19:6:12, N:P:K^+ minor nutrients) at 2 g per 16-oz. pot and 4 g per 32-oz. pot.\n(§5) Applications were made by injecting with a pipetter appropriate amounts of the application solutions, individually and sequentially, into the aqueous layer of the paddy. Control plants were treated in the same manner with the solvent blank. Applications were made so that all treated plant material received the same concentrations of acetone and crop oil concentrate."}, "ECHCO": {"tested_on": "ECHCO", "assay": "Example I: postemergence foliar-applied herbicidal mixtures, direct seeded rice, ECHCO"}, "CYPDI": {"tested_on": "CYPDI", "assay": "Example I: postemergence foliar-applied herbicidal mixtures, direct seeded rice, CYPDI", "format": "in vivo, Cyperus difformis (smallflower umbrella sedge)", "experimental": "(§6) The soil matrix was contained in plastic pots with a volume of 1 quart and a surface area of 83.6 square centimeters (cm^2). […] The plants were grown for 8-22 days in a greenhouse with an approximate 14 h photoperiod which was maintained at about 29° C. during the day and 26° C. during the night. Nutrients (Peters Excel® 15-5-15 5-Ca 2-Mg and iron chelate) were applied in the irrigation solution as needed and water was added on a regular basis. Supplemental lighting was provided with overhead metal halide 1000-Watt lamps as necessary. The plants were employed for testing when they reached the first through fourth true leaf stage.\n(§7) Treatments consisted of the acid or esters of 4-amino-3-chloro-5-fluoro-6-(4-chloro-2-fluoro-3-methoxy-phenyl)pyridine-2-carboxylic acid (Compound A), each formulated as an SC (suspension concentrate), and various herbicidal components alone and in combination. Forms of compound A were applied on an acid equivalent basis.\n(§8) For treatments comprised of formulated compounds, measured amounts of compounds were placed individually in 25 mL glass vials and diluted in a volume of 1.25% (v/v) Agri-Dex® crop oil concentrated to obtain 12× stock solutions. […] Application solutions were prepared by adding an appropriate amount of each stock solution (e.g., 1 mL) and diluted to the appropriate final concentrations with the addition of 10 mL of an aqueous mixture of 1.25% (v/v) crop oil concentrate so that the final spray solutions contained 1.25+/−0.05% (v/v) crop oil concentrate.\n(§9) All stock solutions and applications solutions were visually inspected for compound compatibility prior to application. Spray solutions were applied to the plant material with an overhead Mandel track sprayer equipped with a 8002E nozzles calibrated to deliver 187 L/ha over an application area of 0.503 m^2 at a spray height of 18 to 20 inches (46 to 50 cm) above average plant canopy height. Control plants were sprayed in the same manner with the solvent blank.\n(§10) The treated plants and control plants were placed in a greenhouse as described above and watered by sub-irrigation to prevent wash-off of the test compounds. After approximately 3 weeks, the condition of the test plants as compared with that of the untreated plants was determined visually and scored on a scale of 0 to 100 percent where 0 corresponds to no injury or growth inhibition and 100 corresponds to complete kill.\n(§11) Colby's equation was used to determine the herbicidal effects expected from the mixtures (Colby, S. R. 1967. Calculation of the synergistic and antagonistic response of herbicide combinations. Weeds 15:20-22).\nThe following equation was used to calculate the expected activity of mixtures containing two active ingredients, A and B: Expected=A+B−(A×B/100) […]"}, "ECHCG [1]": {"tested_on": "ECHCG", "assay": "Example I: postemergence foliar-applied herbicidal mixtures, direct seeded rice, ECHCG", "experimental": "as §6, §7, §8, §9, §10, §11\n(§12) The following equation was used to calculate the expected activity of mixtures containing two active ingredients, A and B: Expected=A+B−(A×B/100)\n(§13) A=observed efficacy of active ingredient A at the same concentration as used in the mixture.\n(§14) B=observed efficacy of active ingredient B at the same concentration as used in the mixture."}, "ECHOR": {"tested_on": "ECHOR", "assay": "Example II: in-water applied herbicidal mixtures, transplanted paddy rice, ECHOR", "format": "in vivo, Echinochloa oryzoides (early watergrass)", "conditions": "Echinochloa oryzoides; for pest or weed control at 70 g/ha: 70 gae/ha; for pest or weed control at 140 g/ha: 140 gae/ha", "description": "as §4, §5"}, "ECHCG [2]": {"tested_on": "ECHCG", "assay": "Example II: in-water applied herbicidal mixtures, transplanted paddy rice, ECHCG", "format": "in vivo, Echinochloa crus-galli (barnyardgrass)", "description": "as §4, §5"}, "SCPJU": {"tested_on": "SCPJU", "assay": "Example II: in-water applied herbicidal mixtures, transplanted paddy rice, SCPJU", "format": "in vivo, Schoenoplectus juncoides (Japanese bulrush)", "conditions": "25 DAA", "description": "as §4, §5"}, "LEFCH [3]": {"tested_on": "LEFCH", "assay": "Example II: in-water applied herbicidal mixtures, transplanted paddy rice, LEFCH", "format": "in vivo, Leptochloa chinensis (Chinese sprangletop)", "conditions": "25 DAA; 70 gae/ha", "description": "as §4, §5"}, "LEFCH [4]": {"tested_on": "LEFCH", "assay": "Example I: postemergence foliar-applied herbicidal mixtures, direct seeded rice, LEFCH", "format": "in vivo, Leptochloa chinensis (Chinese sprangletop)", "conditions": "280 gae/ha", "experimental": "as §6, §7, §8, §9, §10, §11, §12, §13, §14"}, "CENMA": {"tested_on": "CENMA", "assay": "Example V: postemergence herbicidal activity of mixtures in forage crops, CENMA", "format": "in vivo, Centaurea maculosa (spotted knapweed)", "conditions": "alone, foliar, approximately 21 days", "description": "as §1, §2"}, "SONAR": {"tested_on": "SONAR", "assay": "Example V: postemergence herbicidal activity of mixtures in forage crops, SONAR", "format": "in vivo, Sonchus arvensis (field sowthistle)", "conditions": "alone, foliar, approximately 21 days", "description": "as §1, §2"}, "[5]": {"conditions": "70 gae/ha (Compound A Benzyl Ester rate not given)"}, "[6]": {"conditions": "140 gae/ha (Compound A Benzyl Ester rate not given)"}, "[7]": {"conditions": "456 h, read-out: Visual Weed Control (%) Obs, 19 DAA"}, "[8]": {"conditions": "600 h, read-out: Visual Weed Control (%) Obs, 25 DAA"}},
  "note": "Structures can show the parent of a compound that is named as a salt. Where two headings read alike, the source gives them in different places.",
  "data": [
    {"compound": "Nc1cc(Cl)nc(C(=O)O)c1Cl", "note": "[Aminopyralid TIPA salt, 4-amino-3,6-dichloropyridine-2-carboxylic acid compound with 1,1′,1″-nitrilotris[2-propanol], reference compound]", "values": [
      {"measurement": "CIRAR Obs (observed value)", "setting": "CIRAR; 17.5 gae/ha", "result": 45, "unit": "%"},
      {"measurement": "TRFRE Obs (observed value)", "setting": "TRFRE; 17.5 gae/ha", "result": 35, "unit": "%"},
      {"measurement": "SOOSS Obs (observed value)", "setting": "SOOSS; 17.5 gae/ha", "result": 45, "unit": "%"},
      {"measurement": "SINAR Obs (observed value)", "setting": "SINAR; 17.5 gae/ha", "result": 25, "unit": "%"},
      {"measurement": "SINAR Obs (observed value)", "setting": "SINAR; 35 gae/ha", "result": 45, "unit": "%"}
    ]},
    {"compound": "COc1c(Cl)ccc(-c2cc(N)c(Cl)c(C(=O)[O-])n2)c1F.[K+]", "note": "[Halauxifen K^+ Salt]", "values": [
      {"measurement": "Visual Weed Control (%) Obs", "setting": "ELEIN; 3.75 gae/ha", "result": 30, "unit": "%"},
      {"measurement": "Visual Weed Control (%) Obs", "setting": "ELEIN; 7.5 gae/ha", "result": 40, "unit": "%"},
      {"measurement": "Visual Weed Control (%) Obs", "setting": "ELEIN; 15 gae/ha", "result": 50, "unit": "%"},
      {"measurement": "Visual Weed Control (%) Obs", "setting": "SORHA", "result": 0, "unit": "%"}
    ]},
    {"compound": "CCCCCCC(C)OC(=O)COc1nc(F)c(Cl)c(N)c1Cl", "note": "(stereo not drawn) [Fluroxypyr MHE, 1-methylheptyl 2-[(4-amino-3,5-dichloro-6-fluoro-2-pyridinyl)oxy]acetate, reference compound]", "values": [
      {"measurement": "Visual Weed Control (%) Obs", "setting": "SCPMA", "result": 30, "unit": "%"},
      {"measurement": "Visual Weed Control (%) - 21 DAA ECHCO Obs", "setting": "ECHCO; 70 gae/ha", "result": 0, "unit": "%"},
      {"measurement": "Visual Weed Control (%) - 21 DAA ECHCO Obs", "setting": "ECHCO; [5]", "result": 0, "unit": "%"},
      {"measurement": "Visual Weed Control (%) - 21 DAA ECHCO Obs", "setting": "ECHCO; 140 gae/ha", "result": 0, "unit": "%"},
      {"measurement": "Visual Weed Control (%) - 21 DAA ECHCO Obs", "setting": "ECHCO; [6]", "result": 0, "unit": "%"},
      {"measurement": "Visual Weed Control (%) - 21 DAA CYPDI Obs", "setting": "CYPDI; 70 gae/ha", "result": 15, "unit": "%"},
      {"measurement": "Visual Weed Control (%) - 21 DAA CYPDI Obs", "setting": "CYPDI; 140 gae/ha", "result": 80, "unit": "%"},
      {"measurement": "Visual Weed Control (%) - 21 DAA ECHCG Obs", "setting": "ECHCG [1]; 70 gae/ha", "result": 0, "unit": "%"},
      {"measurement": "Visual Weed Control (%) - 21 DAA ECHCG Obs", "setting": "ECHCG [1]; [5]", "result": 0, "unit": "%"},
      {"measurement": "Visual Weed Control (%) - 21 DAA ECHCG Obs", "setting": "ECHCG [1]; 140 gae/ha", "result": 0, "unit": "%"},
      {"measurement": "Visual Weed Control (%) - 21 DAA ECHCG Obs", "setting": "ECHCG [1]; [6]", "result": 0, "unit": "%"},
      {"measurement": "Visual Weed Control (%) - 19 DAA ECHCG Obs", "setting": "ECHCG [1]; 280 gae/ha", "result": 25, "unit": "%"},
      {"measurement": "pest or weed control at 70 g/ha", "setting": "ECHOR; [7]", "result": 0, "unit": "%"},
      {"measurement": "pest or weed control at 140 g/ha", "setting": "ECHOR; [7]", "result": 0, "unit": "%"},
      {"measurement": "pest or weed control at 70 g/ha", "setting": "ECHOR; [8]", "result": 0, "unit": "%"},
      {"measurement": "pest or weed control at 140 g/ha", "setting": "ECHOR; [8]", "result": 0, "unit": "%"},
      {"measurement": "Visual Weed Control (%) Obs", "setting": "ECHCG [2]; 19 DAA, 70 gae/ha", "result": 0, "unit": "%"},
      {"measurement": "Visual Weed Control (%) Obs", "setting": "ECHCG [2]; 19 DAA, 140 gae/ha", "result": 0, "unit": "%"},
      {"measurement": "Visual Weed Control (%) Obs", "setting": "ECHCG [2]; 19 DAA, 280 gae/ha", "result": 0, "unit": "%"},
      {"measurement": "Visual Weed Control (%) Obs", "setting": "ECHCG [2]; 25 DAA, 140 gae/ha", "result": 0, "unit": "%"},
      {"measurement": "Visual Weed Control (%) Obs", "setting": "SCPJU; 70 gae/ha", "result": 20, "unit": "%"},
      {"measurement": "Visual Weed Control (%) Obs", "setting": "SCPJU; 140 gae/ha", "result": 30, "unit": "%"},
      {"measurement": "Visual Injury (%) Obs", "setting": "LEFCH [3]", "result": 20, "unit": "%"},
      {"measurement": "Visual Weed Control (%) Obs", "setting": "LEFCH [3]", "result": 20, "unit": "%"},
      {"measurement": "Visual Weed Control (%) - 19 DAA LEFCH Obs", "setting": "LEFCH [4]", "result": 28, "unit": "%"}
    ]},
    {"compound": "CCCCCCC(C)OC(=O)COc1nc(F)c(Cl)c(N)c1Cl", "note": "(stereo not drawn) [Fluroxypyr ME]", "values": [
      {"measurement": "CIRAR Obs (observed value)", "setting": "CIRAR; 70 gae/ha", "result": 10, "unit": "%"},
      {"measurement": "CENMA Obs (observed value)", "setting": "CENMA; 35 gae/ha", "result": 0, "unit": "%"},
      {"measurement": "CENMA Obs (observed value)", "setting": "CENMA; 70 gae/ha", "result": 0, "unit": "%"},
      {"measurement": "TRFRE Obs (observed value)", "setting": "TRFRE; 35 gae/ha", "result": 15, "unit": "%"},
      {"measurement": "TRFRE Obs (observed value)", "setting": "TRFRE; 70 gae/ha", "result": 20, "unit": "%"},
      {"measurement": "SOOSS Obs (observed value)", "setting": "SOOSS; 70 gae/ha", "result": 50, "unit": "%"},
      {"measurement": "SONAR Obs (observed value)", "setting": "SONAR; 35 gae/ha", "result": 0, "unit": "%"},
      {"measurement": "SONAR Obs (observed value)", "setting": "SONAR; 70 gae/ha", "result": 15, "unit": "%"}
    ]}
  ]
}
